Key:
[1] = test system: PC3 prostate cancer cells; test: In vitro collagen-fibrin tumor progression model, PC-3; format: cell-based, human; settings: renewed daily, 15 days
Protocol: FIG. 11: Illustration of the antitumor activity of bpV(phen) in vitro using PC3 prostate cancer cells. Collagen gels containing the PC3 cells were prepared according to the method of Esdale and Bard (1972). Briefly, stock collagen solution (3.5 mg/ml in acetic acid 0.02N; Rat tail) was added to a mixture composed of culture medium (5×), fetal bovine serum (FBS), bicarbonate (0.26M), and was neutralized with 0.1N NaOH. A cell suspension (1.42×10^6 cells/ml) was mixed into the collagen-medium mixture to obtain a final concentration of 2.5×10^5 cells/ml.
A DMEM medium, having a normal concentration of glucose and without phenol red, was used. After gelification (within 1 h) of the collagen mixture containing the cells, the gels were removed from their culture wells (mould) and interwoven into a receptor hole prepared in a fibrin gel, as previously described (103). The fibrin gel was made from a 0.3% fibrinogen solution in Hank's balanced salt solution. Fibrin was allowed to polymerize with thrombin (stock solution at 1.75 mg/ml) at a ratio of 1:003 v/v fibrin to thrombin. The collagen-fibrin complexes were then covered with serum-supplemented medium according to the cell types. An inhibitor of plasminogen activator (Trasylol, Parke Davies) was added into the medium at 10 μl/ml (100U/ml).
Cell behavior was periodically monitored over 15 days of culture. […]

[2] = test system: Th1 and Th2 cytokine genes in spleen; test: Cytokine gene expression in spleen (multi-probe RNase protection assay); format: in vivo, BALB/c mice; settings: naive mice; up to 24 hr; in comparison to PBS
Excerpt: FIG. 8: In vivo bpV(phen)-induced cytokine gene expression in spleen of BALB/c mice. Expression of Th1 (IFN-(, IL-2, IL-12) and Th2 (IL-4 and IL-10) cytokines were monitored in spleen of BALB/c mice in response to bpv(phen) over a 24-hr period. Expression of cytokine genes has been monitored using a multi-probe RNase protection assay as described in more detail below. Results obtained are representative of 3 experiments performed independently.

O.O.O.OO.OO.[K+].[OH-].[V].c1cnc2c(c1)ccc1cccnc12 [bpV(phen), potassium bisperoxo(1,10-phenanthroline)oxovanadate]
progression of PC-3 cells (secondary tumors, migration front) ([1]; 2 μM): a decrease in the size of the secondary tumor was observed
progression of PC-3 cells (secondary tumors, migration front) ([1]; 5 and 10 μM): there was no migration front and there were no secondary tumors
cytokine gene expression in spleen (IL-12, IL-10, IL-2 and IFN) [2]: significantly up-regulated

Source: US20030055106A1, “Therapeutic uses of peroxometallic compounds” (priority 1999, published 2003)
